Reference: patent US4835176A, “Glycookadaic acid, preparation thereof and use thereof” (priority 1987, dated 1989)
≈ marks a conversion by molar mass, not a printed value. Entries after “also recorded” stand apart in the source; their conditions may differ.

What was measured:
[1] = Acute toxicity, i.p. injection in BDF1 mouse; type: in vivo; settings: in vivo, ip, 5 weeks old, female, intraperitoneal, read-out: 50% Lethal dose (LD50)
Description: (§1) A test drug was injected into the peritoneal cavity of BDF1 mouse (5 weeks old, female) to measure 50% lethal dose (LD50).

P388 leukemia cell = assay: Cytotoxicity, 50% growth inhibition of P388 leukemia cell; type: cell-based; settings: Mus musculus, read-out: 50% growth inhibition concentration (IC50)
Description: (§2) B-16 melanoma cell, P388 leukemia cell or L 929 cell was cultivated together with a prescribed amount of a test drug on a 24-well or 96-well test plate and the number of living cells was measured one day or 3 days later to know the 50% growth inhibition concentration.

B-16 melanoma cell = assay: Cytotoxicity, 50% growth inhibition of B-16 melanoma cell; type: cell-based
Description: as §2

[2] = Recovery effect on cachectin/TNF-induced reduction of lipoprotein lipase (LPL) in adipocytes; type: cell-based; settings: mouse, 3t3-l1 cells; read-out: Concentration at which OK exhibits cytotoxicity
Description: (§3) 3T3-L1 cells (5×10^4 cells per well) were cultivated in wells of 48-well test plate for about one week until the cell growth reached became confluent. Test drug and 4×10^-10 ^- 10 g/ml (32 unit/ml as TNF activity) of recombinant human TNF (rHu-TNF) were added, and the cultivation was further continued.
(§4) After 20 hours, the test drug and rHu-TNF were removed. Then 10 unit/ml of heparin was added, and after 90 min., activity of lipoprotein lipase (LPL) isolated from 3T3-L1 cell by heparin was measured according to the method as described in Nelsson-Ehle, P., et al., J. Lipid Res., 17, 536 (1976).
(§5) On the LPL activity measured, the recovery on the reduction of lipoprotein lipase production was calculated by the following formula: [formula]
(§6) ^1 The experiment was performed in the presence of rHu TNF (32

[3] = tested on: lipoprotein lipase (LPL) of 3T3-L1 cells; assay: as above; type: cell-based
Description: as §3, §4, §5, §6

L 929 cell = assay: Cytotoxicity, 50% growth inhibition of L 929 cell; type: cell-based
Description: as §2

L 929 cells = assay: Effect on cytotoxic activity of TNF; type: cell-based
Description: L 929 cells (10^4 cells/well) was cultivated on a test plate having 96 wells, and after 24 hours, a test drug and recombinant human-tumor necrosis factor (rHu - TNF) were added thereto such that rHu - TNF became 2.5×10^-11 g/ml (TNF activity of 2 unit/ml), and then, after 24 hours, the number of living cells was measured.
The effect of test drug on the cytotoxicity of TNF was calculated according to the above-mentioned formula (A) and shown by "%" value.
^1 The experiments were effected in the presence of TNF (2 units/ml)

BDF1 mouse = assay: Acute toxicity, i.p. injection in BDF1 mouse; type: in vivo
Description: as §1

Acid or base = type: physicochemical
Stability = type: physicochemical
Solubility = type: physicochemical

C=C1C(O)C2OC3(CCC(C=CC(C)C4CC(C)=CC5(OC(CC(C)(O)C(=O)O)CCC5O)O4)O3)CCC2OC1C(O)CC(C)C1OC2(CCCCO2)CCC1C (stereo not drawn) [OK, okadaic acid]
LD50 [1]: 0.16 mg/kg
IC50 (P388 leukemia cell): 0.024 µg/mL (≈ 0.0298 µM)
IC50 (B-16 melanoma cell; Mus musculus, B16, 24 h, B-16 melanoma, cultivated for one day, read-out: 50% growth inhibition concentration (IC50)): 0.018 µg/mL (≈ 0.0224 µM)
MCC [2]: 0.1 µg/mL
Effect on lowered LPL production (in words) ([3]; OK, even at 0.1 μg/ml): did not exhibit the effect of inhibition
IC50 (L 929 cell; Mus musculus, L929, read-out: 50% growth inhibition concentration (IC50)): 0.084 µg/mL (≈ 0.104 µM)
Effect on cytolytic activity of TNF (in words) (L 929 cells): Neither GOK nor OK affected the cytolytic activity of TNF

glycookadaic acid [GOK]
Toxicity (in words) (BDF1 mouse): toxicity of GOK is low; also recorded: far safer drug than OK
50% Lethal dose (LD50) (BDF1 mouse; 5 weeks old, female, intraperitoneal): > 16 mg/kg
LD50 of GOK relative to that of OK (BDF1 mouse; intraperitoneal): ≥ 100 times
Acid or base (Acid or base): Weekly acidic substance
Stability (Stability; acid): Unstable to acid
Stability (Stability; alkali): Relatively stable to alkali
50% growth inhibition concentration (IC50) (B-16 melanoma cell; B-16 melanoma, cultivated for one day): 19 µg/mL
Cytotoxicity compared with OK (B-16 melanoma cell; all cell species of Table 1): much weaker than that of OK
Solubility (Solubility; acetone or chloroform): Insoluble or sparsely soluble
Solubility (Solubility; methanol, ethanol or pyridine): Easily soluble
Recovery of LPL generation in adipocytes (in words) [3]: specifically recovers the lowering effect on the generation of lipoprotein lipase in adipocytes
Concentration with effect of recovering from the lowering of production of lipoprotein lipase ([3]; 3T3-L1 cells with rHu-TNF): 3 to 10 µg/mL
50% growth inhibition concentration (IC50) (L 929 cell): 28 µg/mL
Effect on cytolytic activity of TNF (in words) (L 929 cells): Neither GOK nor OK affected the cytolytic activity of TNF; also recorded: does not suppress the cytotoxic activity of cachectin/TNF toward cancer cells
